Measured values taken from PubChem BioAssay AID179 (DTP/NCI, 2004).
pEC50, pIC50: −log10 of the molar value. Activity calls are given as the source filed them.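 The calls were made as follows: active = compounds giving half or more protection of infected cells from virus-caused growth loss, again on retest; inactive = the rest.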 Where a SMILES comes first, the peptide text is derived from it. The star is where a group is joined. Boc = CC(C)(C)OC(=O)*

Tested on: CEM cells HIV-1 protection, formazan growth assay
Experiment: NCI AIDS Antiviral Assay
Conditions: for pIC50: measured here: growth of uninfected CEM cells
Method in brief: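 Screen of anti-HIV-1 activity in human CEM cells using a formazan-based growth measurement at five drug concentrations. Hits with 50% or greater protection were repeated, and confirmation required reproducible complete protection.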

Structure (SMILES)	pEC50	pIC50	outcome
CN1CN(c2ccccc2)C2(CCN(CCc3cc4ccccc4o3)CC2)C1=O	< 3.70	5.09	
CCSc1ccc(/C=C(\C#N)c2ccc(OCCN(CC)CC)cc2)cc1	< 4.00	5.92	
O=C1CC2CCCC(C1)S2=O (configuration not stated)	< 2.84	< 2.84	
CCOC(=O)/C(Cl)=C1\SN(C(=O)OCC)N=C1C	< 3.99	4.97	
N[C@@H]1C(CO)NC[C@@H]1CO (some centres not stated)	< 3.70	< 3.70	
CN(Cc1cnc2nc(N)nc(N)c2n1)c1ccc(C(=O)NC(CCC(=O)O)C(=O)O)c2ccccc12 (configuration not stated)	< 6.70	8.66	
Cc1c/c(=N/NC(=O)c2ccncc2)n2nc(N)sc2n1	< 3.70	< 3.70	
CC(O)CNC(=O)C(C)Oc1ccc(OCC2CCCCC2)cc1 (configuration not stated)	< 3.55	4.60	
[Cu+2].[O-]/C(=N\N=C/c1cccc(C(F)(F)F)c1)c1ccncc1.[O-]/C(=N\N=C\c1cccc(C(F)(F)F)c1)c1ccncc1	< 4.00	5.25	
COC(=O)[C@]1(C)CC[C@]2(C)CC[C@]3(C)C4CC[C@@]5(COC(C)=O)C(CCC(=O)[C@@H]5C)[C@]4(C)CCC3(C)[C@@H]2C1 (some centres not stated)	< 4.47	4.80	
CCN(CC)c1ccc(C(=C2C=CC(=[N+](CC)CC)C=C2)c2ccc(S(=O)(=O)O)cc2S(=O)(=O)[O-])cc1			inactive
CCc1cccc(C)c1NC(=O)CC1C(=O)Nc2ccccc2S1(=O)=O (configuration not stated)	< 5.00	< 5.00	
CCCCCCCCCN1CCC(=O)C(C(=O)OC)C1 (configuration not stated)	< 3.70	5.33	
CCCCCC=C(c1cc(Br)c(O)c(C(=O)O)c1)c1cc(Br)c(O)c(C(=O)O)c1	< 3.09	3.82	
CCOC(=O)COc1cccc2c1C(=O)CCO2			inactive
CCOC(CC1(O)C(=O)N(Cc2ccccc2)c2ccccc21)OCC (configuration not stated)	< 3.70	< 3.70	
Cc1ccc(OCCn2cc(Nc3ccccc3)c(=O)n(CCOc3ccc(C)cc3)c2=O)cc1	< 3.70	3.76	
Cc1ccc(N=NC(=O)NNc2ccc(C)c([N+](=O)[O-])c2)cc1[N+](=O)[O-]	< 3.70	4.20	
NC(CSS(=O)(=O)O)=NCCCC1CCCCC1	< 3.70	3.99	
O=C1c2ccccc2CCC1(Br)Cc1ccccc1 (configuration not stated)	< 3.70	4.69	

Structure (SMILES)	pEC50	pIC50	outcome
CCOC(=O)c1[nH]c2cccc3c2c1CC[C@H](NC(=O)C(F)(F)F)C3=O	< 3.70	< 3.70	
NC(N)=NS(=O)(=O)c1ccc(Nc2c3ccccc3nc3ccc(C(=O)Nc4ccc(S(N)(=O)=O)cc4)cc23)cc1	< 3.70	< 3.70	
Cn1cnc([N+](=O)[O-])c1Sc1ncnc2nc[nH]c12	< 3.70	4.97	
C=C1[C@H](OC(=O)C(C)C)[C@@H](OC(C)=O)[C@@H](OC(C)=O)C(C)(C)[C@@H]2O[C@H]2[C@@H](C)C(=O)[C@@]2(OC(C)=O)C[C@@](C)(OC(C)=O)[C@H](OC(C)=O)[C@@H]2[C@H]1OC(C)=O	< 3.70	< 3.70	
Cc1ccc(-c2c(C#N)c(N)nc3c2CCS(=O)(=O)c2ccccc2-3)cc1	< 3.70	4.11	
O=C1NC(=O)c2ccccc2/C1=C/c1ccc2c(c1)OCO2	< 3.70	5.68	
CN(C)CCCNC(=O)c1cc(NC(=O)c2cc(NC(=O)c3cc(NC(=O)c4ccccc4C(=O)O)cn3C)cn2C)cn1C	< 3.70	< 3.70	
COC(=O)C(C)NC(=O)C(CCSC)NC(=O)C(Cc1ccccc1)NC(=O)OC(C)(C)C (stereo not drawn) (Boc-Phe-Met-Ala-OMe; configuration not given here)	< 3.70		
CC(=O)NC1=C(C)C(=O)c2c(nc3n2CCC3OC(=O)c2ccccc2)C1=O (configuration not stated)	< 3.70	6.01	
CC(=O)NNc1nc(C)c(C(=O)NNC(=O)C(=O)Nc2nc3ccc([N+](=O)[O-])cc3s2)s1	< 3.85	4.48	
COC(=O)C1C2C=CC(C2)N1[C@@H](C)c1ccccc1 (some centres not stated)	< 4.55	< 4.55	
COc1ccc(CCCCl)c(C2=NCCc3ccccc32)c1	< 3.70	5.15	
Cc1cc(O)c2c(=O)c3ccccc3[nH]c2c1	< 3.70	4.39	
Cc1cc2ccc(N)nc2[nH]c1=O	< 3.70	< 3.70	
N#Cc1sc2nc(/C=C3/C=CC=CC3=O)c(O)n2c1N	< 3.70	4.03	
COc1cc(CNc2nc3cc(C(F)(F)F)ccc3nc2C(=O)O)cc(OC)c1OC	< 3.70	4.01	
COC(=O)[C@@]12CCCC(=O)[C@@H]1[C@H]1CCC[C@H]12	3.95	< 3.70	
O=[N+]([O-])c1ccc(N/N=C/c2ccc(OCCCCCCCCCCCO)cc2)c([N+](=O)[O-])c1	< 3.70	4.37	
O=C(OCCOC(=O)c1ccc2c(c1)C1(SCCS1)c1ccccc1-2)c1ccc2c(c1)C1(SCCS1)c1ccccc1-2	< 4.52	< 4.52	
CCOC(=O)C1=C(O)C(=O)c2ccoc2C1=O	< 4.10	< 4.10	

Structure (SMILES)	pEC50	pIC50	outcome
COc1cc(OC)c(NC2=NCCO2)cc1Cl	< 3.70	4.87	
N#C/C(=C\c1ccccc1)c1cccc(F)c1	< 3.70	4.33	
CCOC(=O)c1ccc(N2C(=S)N(C(=O)c3ccccc3)C(=Nc3ccccc3)C2=Nc2ccccc2)cc1	< 3.70	5.55	
CC1=NC(=O)CC2=C1C(C)N(Cc1ccccc1)C2=O (configuration not stated)	< 3.45	< 3.45	
CC(=O)Oc1ccc(/C=C/C(=O)O[C@@H](C)[C@H](C)OC(=O)/C=C/c2ccc(OC(C)=O)c(OC(C)=O)c2)cc1OC(C)=O	< 4.00	5.25	
Oc1ccccc1-c1cnnc(-c2ccccc2O)c1	< 4.01	4.74	
CC1=NNC(=O)C1C1CC(c2c[nH]c3ccccc23)=NN=C1Cl (configuration not stated)	< 3.70	4.03	
CCCc1cc(=O)oc2c3c(c4c(c12)OC(C)(C)[C@@H](O)[C@H]4O)O[C@@H](C)[C@H](C)[C@@H]3O	< 3.70	3.87	
CC(C)C1NC(=O)c2ccccc2S1 (configuration not stated)	< 3.06	3.71	
CCOC(=O)c1sc(SC)nc1NC(=O)c1ccccc1	< 3.70	< 3.70	
CC(=O)N1CC(=O)N2C(=O)/C(=C/c3ccc(Cl)cc3)N=C12	< 4.20	5.16	
COc1ccc(/C=C/C(=O)N[C@@H]2CCN3CCCC23)cc1 (some centres not stated)			inactive
C=C(C)[C@@H]1CC[C@]2(COC(=O)CC(C)(C)CC(=O)O)CC[C@]3(C)[C@H](CC[C@@H]4[C@@]5(C)CC[C@H](OC(=O)CC(C)(C)CC(=O)O)C(C)(C)[C@@H]5CC[C@]43C)[C@@H]12	< 3.70	5.15	
O=C(c1ccccc1)N1C(=O)c2ccccc21	< 3.79	4.31	
O=[N+]([O-])c1ccc2occ3c2c1CCC3	4.17	3.58	
COc1ccc(CCN2C(=O)c3cccc4c(Br)ccc(c34)C2=O)cc1	< 3.70	3.98	
COC(CN1C=C(Sc2ccccc2)CC1)OC	< 4.01	4.78	
Cc1cnc2c(c1)C(=O)N(c1ccc(Br)cc1)S2(=O)=O	< 3.70	4.23	
